How the values were obtained:
[1] = method code SF-HPLC, from DOI: 10.1002/jps.2600830309, PMID: 8207673; conditions: pH 7.5

logD (pH 7.5)	Compound	further results
4.71	CCc1cc(Cl)c(O)c(C(=O)NC[C@@H]2CCCN2CCF)c1OC	
3.22	COc1cc(Br)cc(C(=O)NC[C@@H]2CCCN2CCF)c1OC	
	CCOc1ccc(I)c(O)c1C(=O)NC[C@@H]1CCCN1CC	logD [1]: 2.84
	CCOc1c(OC)cc(I)c(O)c1C(=O)NC[C@@H]1CCCN1CC	logD (pH 7.4): 2.52
